This assay deals with REV-ERBα LBD (Homo sapiens, UniProt P20393, DEL324-422). The assay is described as follows: biochemical. To be noted: FRET assay; 6xHistag-REV-ERBα LBD with FITC-labeled SMRT corepressor peptide; read-out: REVERBα (Agonism of REV-ERBα, EC50). An outline of the steps: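 Serially diluted ligands were incubated 2 h at 4° C, in triplicate, with E. coli-expressed His-REV-ERBα LBD (281-614 Δ324-422 or 381-579; 4 nM), Tb-anti-His (1 nM) and FITC-labelled SMRT peptide (400 nM). EC50 came from sigmoidal fits of the 520/495 nm TR-FRET ratio.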

From patent US20260285846A1, “REV-ERB AGONISTS FOR TH17-MEDIATED INFLAMMATORY DISORDERS” (UNIVERSITY OF FLORID RESEARCH FOUNDATION, iNCORPORATED, priority 2021, published 2026) come the findings set out here.

REV-ERBα LBD, sequence (P20393 with tags, fused parts or gaps DEL324-422): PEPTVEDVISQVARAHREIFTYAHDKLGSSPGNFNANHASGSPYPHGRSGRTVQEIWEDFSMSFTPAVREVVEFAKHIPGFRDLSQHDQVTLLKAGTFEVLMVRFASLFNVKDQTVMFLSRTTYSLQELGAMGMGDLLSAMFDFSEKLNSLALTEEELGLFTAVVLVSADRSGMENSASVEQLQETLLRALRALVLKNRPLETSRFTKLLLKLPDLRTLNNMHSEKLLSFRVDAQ
REV-ERBα LBD, sequence (Q9Y618 2335-2356 partner limits assumed): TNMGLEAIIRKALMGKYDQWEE

`CC(C)(C)Cn1cc([C@H](NS(=O)(=O)C2CC2)C(F)F)c2cc(F)c(-c3cccnc3C(F)(F)F)nc21` [Compound 145, (S)—N-(2,2-difluoro-1-(5-fluoro-1-neopentyl-6-(2-(trifluoromethyl)pyridin-3-yl)-1H-pyrrolo[2,3-b]pyridin-3-yl)ethyl)cyclopropanesulfonamide]: the EC50 was < 100 nM.

`O=S(=O)(N[C@@H](c1cn(C2CCC2)c2cc(-c3cccnc3C(F)(F)F)c(F)cc12)C(F)F)C1CC1` [Compound 146, (S)—N-(1-(1-cyclobutyl-5-fluoro-6-(2-(trifluoromethyl)pyridin-3-yl)-1H-indol-3-yl)-2,2-difluoroethyl)cyclopropanesulfonamide]: the 50% effective concentration (EC50) was < 100 nM.

`O=S(=O)(N[C@@H](c1cn(C2CCC2)c2nc(-c3cccnc3C(F)(F)F)c(F)cc12)C(F)F)C1CC1` [Compound 147]: the EC50 is < 100 nM.

As for `CC(C)(C)Cn1cc([C@H](NS(=O)(=O)C2CC2)C(F)F)c2cc(F)c(-c3cc(F)cnc3C(F)(F)F)nc21` [Compound 148, (S)—N-(2,2-difluoro-1-(5-fluoro-6-(5-fluoro-2-(trifluoromethyl)pyridin-3-yl)-1-neopentyl-1H-pyrrolo[2,3-b]pyridin-3-yl)ethyl)cyclopropanesulfonamide], the EC50 was < 100 nM.

As for `O=S(=O)(N[C@@H](c1cn(C2CCC2)c2cc(-c3cc(F)cnc3C(F)(F)F)c(F)cc12)C(F)F)C1CC1` [Compound 149, (S)—N-(1-(1-cyclobutyl-5-fluoro-6-(5-fluoro-2-(trifluoromethyl)pyridin-3-yl)-1H-indol-3-yl)-2,2-difluoroethyl)cyclopropanesulfonamide], the EC50 is < 100 nM.

Turning to `O=S(=O)(N[C@@H](c1cn(C2CCC2)c2nc(-c3cc(F)cnc3C(F)(F)F)c(F)cc12)C(F)F)C1CC1` [Compound 150, (S)—N-(1-(1-cyclobutyl-5-fluoro-6-(5-fluoro-2-(trifluoromethyl)pyridin-3-yl)-1H-pyrrolo[2,3-b]pyridin-3-yl)-2,2-difluoroethyl)cyclopropanesulfonamide], the EC50 is < 100 nM.

Regarding `N#CC1CC(n2cc([C@H](NS(=O)(=O)C3CC3)C(F)F)c3cc(F)c(-c4cc(F)cnc4C(F)(F)F)cc32)C1` (stereo partly drawn) [Compound 151, (S)—N-(1-(1-(3-cyanocyclobutyl)-5-fluoro-6-(5-fluoro-2-(trifluoromethyl)pyridin-3-yl)-1H-indol-3-yl)-2,2-difluoroethyl)cyclopropanesulfonamide], the EC50 is < 100 nM.

Take `O=S(=O)(N[C@@H](c1cn(C2CNC2)c2cc(-c3ccc(F)cc3C(F)(F)F)c(F)cc12)C(F)F)C1CC1` [Compound 152, (S)—N-(1-(1-(azetidin-3-yl)-5-fluoro-6-(4-fluoro-2-(trifluoromethyl)phenyl)-1H-indol-3-yl)-2,2-difluoroethyl)cyclopropanesulfonamide]: the EC50 was > 1000 nM.

Consider `CC(C)(C)Cn1cc([C@H](NS(=O)(=O)C2CC2)C(F)F)c2cc(F)c(-c3ccc(F)cc3C(F)(F)F)nc21` [Compound 153, (S)—N-(2,2-difluoro-1-(5-fluoro-6-(4-fluoro-2-(trifluoromethyl)phenyl)-1-neopentyl-1H-pyrrolo[2,3-b]pyridin-3-yl)ethyl)cyclopropanesulfonamide], for which the EC50 is < 100 nM.

For `O=S(=O)(N[C@@H](c1cn(C2CCC2)c2cc(-c3ccc(F)cc3C(F)(F)F)c(F)cc12)C(F)F)C1CC1` [Compound 154, (S)—N-(1-(1-cyclobutyl-5-fluoro-6-(4-fluoro-2-(trifluoromethyl)phenyl)-1H-indol-3-yl)-2,2-difluoroethyl)cyclopropanesulfonamide], the EC50 is < 100 nM.

Consider `O=S(=O)(N[C@@H](c1cn(C2CCC2)c2nc(-c3ccc(F)cc3C(F)(F)F)c(F)cc12)C(F)F)C1CC1` [Compound 155, (S)—N-(1-(1-cyclobutyl-5-fluoro-6-(4-fluoro-2-(trifluoromethyl)phenyl)-1H-pyrrolo[2,3-b]pyridin-3-yl)-2,2-difluoroethyl)cyclopropanesulfonamide], for which the EC50 is < 100 nM.

For `O=S(=O)(N[C@@H](c1cn(C2CCC2)c2cc(-c3ncc(F)cc3C(F)(F)F)c(F)cc12)C(F)F)C1CC1` [Compound 156, (S)—N-(1-(1-cyclobutyl-5-fluoro-6-(5-fluoro-3-(trifluoromethyl)pyridin-2-yl)-1H-indol-3-yl)-2,2-difluoroethyl)cyclopropanesulfonamide], the half-maximal effective concentration (EC50) is < 100 nM.

As to `Cc1cnc(C(F)(F)F)c(-c2nc3c(cc2F)c([C@H](NS(=O)(=O)C2CC2)C(F)F)cn3C2CCC2)c1` [Compound 157, (S)—N-(1-(1-cyclobutyl-5-fluoro-6-(5-methyl-2-(trifluoromethyl)pyridin-3-yl)-1H-pyrrolo[2,3-b]pyridin-3-yl)-2,2-difluoroethyl)cyclopropanesulfonamide], the EC50 was < 100 nM.

For `N#Cc1cccc(C(F)(F)F)c1-c1nc2c(cc1F)c([C@H](NS(=O)(=O)C1CC1)C(F)F)cn2C1CCC1` [Compound 158, N-((1S)-1-(6-(2-cyano-6-(trifluoromethyl)phenyl)-1-cyclobutyl-5-fluoro-1H-pyrrolo[2,3-b]pyridin-3-yl)-2,2-difluoroethyl)cyclopropanesulfonamide], the concentration for a half-maximal effect (EC50) is < 100 nM.

As for `N#Cc1nccc(C(F)(F)F)c1-c1cc2c(cc1F)c([C@H](NS(=O)(=O)C1CC1)C(F)F)cn2C1CCC1` [Compound 159, N-((1S)-1-(6-(2-cyano-4-(trifluoromethyl)pyridin-3-yl)-1-cyclobutyl-5-fluoro-1H-indol-3-yl)-2,2-difluoroethyl)cyclopropanesulfonamide], the EC50 was < 100 nM.

On to `N#Cc1nccc(C(F)(F)F)c1-c1nc2c(cc1F)c([C@H](NS(=O)(=O)C1CC1)C(F)F)cn2C1CCC1` [Compound 160, N-((1S)-1-(6-(2-cyano-4-(trifluoromethyl)pyridin-3-yl)-1-cyclobutyl-5-fluoro-1H-pyrrolo[2,3-b]pyridin-3-yl)-2,2-difluoroethyl)cyclopropanesulfonamide], for which the concentration giving a half-maximal response (EC50) is < 100 nM.

On to `N#Cc1nccc(C(F)F)c1-c1cc2c(cc1F)c([C@H](NS(=O)(=O)C1CC1)C(F)F)cn2C1CCC1` [Compound 161, N-((1S)-1-(6-(2-cyano-4-(difluoromethyl)pyridin-3-yl)-1-cyclobutyl-5-fluoro-1H-indol-3-yl)-2,2-difluoroethyl)cyclopropanesulfonamide], for which the EC50 is < 100 nM.

Consider `N#Cc1nccc(C(F)F)c1-c1nc2c(cc1F)c([C@H](NS(=O)(=O)C1CC1)C(F)F)cn2C1CCC1` [Compound 162, N-((1S)-1-(6-(2-cyano-4-(difluoromethyl)pyridin-3-yl)-1-cyclobutyl-5-fluoro-1H-pyrrolo[2,3-b]pyridin-3-yl)-2,2-difluoroethyl)cyclopropanesulfonamide], for which the EC50 was < 100 nM.

For the compound `[2H]C1([2H])CC(S(=O)(=O)N[C@@H](c2cn(CC(C)(C)C)c3cc(-c4ccccc4C(F)(F)F)ccc23)C(F)F)C1` [Compound 163, (S)—N-(2,2-difluoro-1-(1-neopentyl-6-(2-(trifluoromethyl)phenyl)-1H-indol-3-yl)ethyl)cyclobutane-1-sulfonamide-3,3-d2], the 50% effective concentration (EC50) is < 100 nM.

Regarding `CC(C)(C)Cn1cc([C@H](NS(=O)(=O)C2CC2)C(F)F)c2cc(F)c(-c3ccc(F)cc3C(F)(F)F)cc21` [Compound 164, (S)—N-(2,2-difluoro-1-(5-fluoro-6-(4-fluoro-2-(trifluoromethyl)phenyl)-1-neopentyl-1H-indol-3-yl)ethyl)cyclopropanesulfonamide], the EC50 is < 100 nM.

On to `O=S(=O)(N[C@@H](c1cn(C2CCC2)c2nc(-c3cc(Cl)cnc3C(F)(F)F)c(F)cc12)C(F)F)C1CC1` [Compound 165, (S)—N-(1-(6-(5-chloro-2-(trifluoromethyl)pyridin-3-yl)-1-cyclobutyl-5-fluoro-1H-pyrrolo[2,3-b]pyridin-3-yl)-2,2-difluoroethyl)cyclopropanesulfonamide], for which the 50% effective concentration (EC50) is < 100 nM.

As to `CC(C)(C)Cn1cc([C@H](NS(=O)(=O)C2CC2)C(F)F)c2ccc(-c3ccc(=O)[nH]c3C(F)(F)F)cc21` [Compound 166, (S)—N-(2,2-difluoro-1-(1-neopentyl-6-(6-oxo-2-(trifluoromethyl)-1,6-dihydropyridin-3-yl)-1H-indol-3-yl)ethyl)cyclopropanesulfonamide], the EC50 was < 100 nM.

As for `CC(C)(C)Cn1cc([C@H](NS(=O)(=O)C2CC2)C(F)F)c2ccc(-c3ccc(N)nc3C(F)(F)F)cc21` [Compound 167, (S)—N-(1-(6-(6-amino-2-(trifluoromethyl)pyridin-3-yl)-1-neopentyl-1H-indol-3-yl)-2,2-difluoroethyl)cyclopropanesulfonamide], the EC50 was < 100 nM.

For `CN1CC(n2cc([C@H](NS(=O)(=O)C3CC3)C(F)F)c3cc(F)c(-c4ccc(F)cc4C(F)(F)F)cc32)C1` [Compound 168, (S)—N-(2,2-difluoro-1-(5-fluoro-6-(4-fluoro-2-(trifluoromethyl)phenyl)-1-(1-methylazetidin-3-yl)-1H-indol-3-yl)ethyl)cyclopropanesulfonamide], the EC50 lay within 100 to 1000 nM.

As to `CC(C)(C)Cn1cc([C@H](NS(=O)(=O)C2CC2)C(F)F)c2cc(F)c(-c3ccc(=O)[nH]c3C(F)(F)F)cc21` [Compound 169, (S)—N-(2,2-difluoro-1-(5-fluoro-1-neopentyl-6-(6-oxo-2-(trifluoromethyl)-1,6-dihydropyridin-3-yl)-1H-indol-3-yl)ethyl)cyclopropanesulfonamide], the EC50 was < 100 nM.

Consider `CC(C)(C)Cn1cc([C@H](NS(=O)(=O)C2CCC2)C(F)F)c2cc(F)c(-c3ccc(F)cc3C(F)(F)F)cc21` [Compound 170, (S)—N-(2,2-difluoro-1-(5-fluoro-6-(4-fluoro-2-(trifluoromethyl)phenyl)-1-neopentyl-1H-indol-3-yl)ethyl)cyclobutanesulfonamide], for which the 50% effective concentration (EC50) was < 100 nM.

As a reminder, the EC50 is the concentration at which the effect is half-maximal.
